Source: patent publication US20250205204A1, “Transcription Factor Brn2 Inhibitory Compounds for Use as Therapeutics” (The University of British Columbia, priority 2021, published 2025)

Columns and labels:
BRN2 = biological target: T1, BRN2 (Homo sapiens, UniProt P20265); assay: Drug Affinity Responsive Target Stability (DARTS) assay; details: printed in BLI binding column; 42D^ENZR lysate
T1 sequence (P20265 1-443): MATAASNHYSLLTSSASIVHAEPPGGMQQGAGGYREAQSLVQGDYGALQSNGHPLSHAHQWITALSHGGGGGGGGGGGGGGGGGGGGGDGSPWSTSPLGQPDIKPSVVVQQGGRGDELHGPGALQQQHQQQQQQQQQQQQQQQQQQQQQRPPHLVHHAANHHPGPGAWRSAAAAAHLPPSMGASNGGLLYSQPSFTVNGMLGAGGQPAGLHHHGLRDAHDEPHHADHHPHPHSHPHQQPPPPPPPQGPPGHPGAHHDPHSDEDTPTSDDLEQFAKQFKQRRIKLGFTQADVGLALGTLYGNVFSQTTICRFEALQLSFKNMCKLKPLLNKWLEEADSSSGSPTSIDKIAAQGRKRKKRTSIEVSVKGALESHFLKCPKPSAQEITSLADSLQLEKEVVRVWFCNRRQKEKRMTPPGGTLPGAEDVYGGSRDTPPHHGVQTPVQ
Method: Step 2: Drug Affinity Responsive Target Stability (DARTS) Assay
This in cell assay provides a yes/no answer to direct interaction between BRN2 inhibitor and protein.
1) Prepare and place the following on ice: • Pronase • TNC 10× • 500 mM Tris-HCl (pH 8.0) • 500 mM NaCl, 100 mM CaCl2 • DMSO • Drug • 10 mL NP40+Protease inhibitor+Phosphatase inhibitor solution (can store in 4° C. and use for up to 4 weeks): • 2 mL NP40 5× • 8 mL ddH2O • 1 PhosphoSTOP™ pill • 200 uL protease inhibitor 50×
2) Remove the growth medium from the cell plate (42D^ENZR) and add 10 mL of cold PBS/vanadate.
3) Scrape the cells. Remove the PBS-cell solution and add in a falcon tube.
4) Name a new 1.5 ml Eppendorf tube and put on ice to pre-chill.
5) Centrifuge the cells at 1500 for 5 minutes at 4° C. Remove supernatant and re-suspend the cells in 600 uL NP40 lysis buffer by pipetting up and down. If the cell pellet is small use less volume, for example 300 μl)
6) Transfer the lysing cells into the pre-chilled Eppendorf tube. Incubate on ice for 20 minutes. If not continuing the DARTS on the same day, you can put the lysate in −30 and work on it later.
Preparing Cell Lysates for DARTS:
7) Centrifuge the tube at maximum speed for 25-30 minutes at 4° C.
8) Discard the pellet (either transfer the supernatant in a new tube or just take out the pellet). […]
20) The samples are ready for Western blot gel running. […]

[1] = Metabolic stability in liver microsomes (MLM); assay type: in vitro ADME, mice; details: 0.25 mg/mL protein
Method in brief: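 Mouse liver microsomes (0.25 mg/mL protein) in 50 mM potassium phosphate pH 7.4 at 37 °C with 1 µM compound, 1 mM NADPH, 0.1% DMSO; sampled 0–60 min in duplicate. LC-MS/MS parent depletion gives half-life; CL'int in mL/min/kg scaled with 45 mg protein/g liver, 90 g liver.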

O=C1/C(=N\Nc2nc3ccccc3s2)Cc2ccccc21 [7-62, (Z)-2-(2-(benzo[d]thiazol-2-yl)hydrazineylidene)-2,3-dihydro-1H-inden-1-one]
binding observed using DARTS assay (BRN2): Strong binding observed using DARTS assay
half-life at 1 μM ([1]; mouse, liver microsomes, pH 7.4, 1 μM compound, read-out: T1/2 in mins (MLM)): 40 min
Met Stab % (60 mins) MLM ([1]; percent remaining at 60 min, 1 μM compound, 1 mM NADPH): 31%
